Measurements reported in patent publication US8017786B2, “Substituted β-phenyl-α-hydroxy-propanoic acid, synthesis method and use thereof” (Northwest University, priority 2006, dated 2011).

System: anesthetized rats
Assay: Blood pressure and left ventricular function of anesthetized rats
Assay type: in vivo, rat
Set-up: contractive pressure, change ratio: unit not given here
Method: All data were input into PowerLab/8Sp data acquisition and processing system via RM-6000 multi-channel polygraph, and recorded, analyzed and processed by PowerLab/8Sp.
The abdomen was opened 1.5 cm below xiphoid bone to isolate duodenum, a small incision was formed on the duodenum away from blood vessels by ophthalmic scissors, a catheter was inserted and the incision was fixed by suture for administration. After the end of operation and a further waiting period of 30 min, normal data were recorded once the indexes to be monitored were stable.
Test drugs were duodenally administered via the catheter, and the indexes were monitored 5, 15, 30, 60, 90 and 120 min after the administration. The change ratios of the indexes were calculated in accordance with the following formula, and were used for statistic analysis among groups.

[1] = 4.5 mg/kg duodenal, 5 min after administration
[2] = 4.5 mg/kg duodenal, 15 min after administration
[3] = 4.5 mg/kg duodenal, 30 min after administration
[4] = 4.5 mg/kg duodenal, 60 min after administration
[5] = 4.5 mg/kg duodenal, 90 min after administration
[6] = 4.5 mg/kg duodenal, 120 min after administration
[7] = 4.5 mg/kg duodenal, before administration
[8] = 9 mg/kg duodenal, 5 min after administration
[9] = 9 mg/kg duodenal, 15 min after administration
[10] = 9 mg/kg duodenal, 30 min after administration
[11] = 9 mg/kg duodenal, 60 min after administration

CC1(C)C2CCC1(C)C(OC(=O)C(O)Cc1ccc(O)c(O)c1)C2 (stereo not drawn) [bornyl salvianate ester, bornyl β-(3,4-dihydroxylphenyl)-α-hydroxylpropionate ester]
mean arterial pressure, systolic pressure and diastolic pressure (in words) (4.5 mg/kg): exhibited no significant change
change-rate of left intraventricular pressure MAX [1]: 5429.3 ± 1279.7 mmHg/s
change-rate of left intraventricular pressure MAX, change ratio [1]: 0.4 ± 11.0
change-rate of left intraventricular pressure, -MAX [1]: −4152.9 ± 764.8 mm/Hg/s
change-rate of left intraventricular pressure, -MAX, change ratio [1]: −2.2 ± 8.2
contractive pressure [1]: 126.54 ± 25.94 mmHg
contractive pressure, change ratio [1]: −1.96 ± 11.16
diastolic pressure [1]: 68.68 ± 15.82 mmHg
diastolic pressure, change ratio [1]: −0.08 ± 12.81
heart rate [1]: 337.41 ± 47.67 beat/min
heart rate, change ratio [1]: 2.49 ± 7.18
left intraventricular pressure [1]: 128.67 ± 18.24 mmHg
left intraventricular pressure, change ratio [1]: 0.38 ± 6.72
mean arterial pressure [1]: 87.97 ± 18.89 mmHg
mean arterial pressure, change ratio [1]: −1.01 ± 11.95
change-rate of left intraventricular pressure MAX [2]: 5435.9 ± 1216.6 mmHg/s
change-rate of left intraventricular pressure MAX, change ratio [2]: 0.9 ± 11.4
change-rate of left intraventricular pressure, -MAX [2]: −4141.1 ± 755.6 mm/Hg/s
change-rate of left intraventricular pressure, -MAX, change ratio [2]: −2.4 ± 9.1
contractive pressure [2]: 128.80 ± 24.39 mmHg
contractive pressure, change ratio [2]: −0.05 ± 10.13
diastolic pressure [2]: 70.87 ± 15.08 mmHg
diastolic pressure, change ratio [2]: 3.38 ± 12.17
heart rate [2]: 347.56 ± 47.18 beat/min
heart rate, change ratio [2]: 5.67 ± 7.58
left intraventricular pressure [2]: 130.13 ± 18.12 mmHg
left intraventricular pressure, change ratio [2]: 1.51 ± 6.25
mean arterial pressure [2]: 90.18 ± 17.91 mmHg
mean arterial pressure, change ratio [2]: 1.66 ± 11.07
change-rate of left intraventricular pressure MAX [3]: 5408.8 ± 1352.2 mmHg/s
change-rate of left intraventricular pressure MAX, change ratio [3]: 0.1 ± 13.5
change-rate of left intraventricular pressure, -MAX [3]: −4090.5 ± 704.6 mm/Hg/s
change-rate of left intraventricular pressure, -MAX, change ratio [3]: −3.6 ± 6.5
contractive pressure [3]: 129.90 ± 23.86 mmHg
contractive pressure, change ratio [3]: 0.93 ± 11.47
diastolic pressure [3]: 71.78 ± 15.67 mmHg
diastolic pressure, change ratio [3]: 4.78 ± 14.39
heart rate [3]: 348.91 ± 52.11 beat/min
heart rate, change ratio [3]: 5.97 ± 9.72
left intraventricular pressure [3]: 129.67 ± 17.48 mmHg
left intraventricular pressure, change ratio [3]: 1.22 ± 7.07
mean arterial pressure [3]: 91.15 ± 17.95 mmHg
mean arterial pressure, change ratio [3]: 2.91 ± 12.81
change-rate of left intraventricular pressure MAX [4]: 5760.1 ± 1393.5 mmHg/s
change-rate of left intraventricular pressure MAX, change ratio [4]: 7.1 ± 18.3
change-rate of left intraventricular pressure, -MAX [4]: −4146.8 ± 820.5 mm/Hg/s
change-rate of left intraventricular pressure, -MAX, change ratio [4]: −2.4 ± 10.2
contractive pressure [4]: 135.97 ± 22.80 mmHg
contractive pressure, change ratio [4]: 5.64 ± 8.91
diastolic pressure [4]: 76.78 ± 14.34 mmHg
diastolic pressure, change ratio [4]: 12.13 ± 9.39
heart rate [4]: 365.43 ± 32.77 beat/min
heart rate, change ratio [4]: 12.05 ± 12.32
left intraventricular pressure [4]: 134.39 ± 19.12 mmHg
left intraventricular pressure, change ratio [4]: 4.73 ± 6.55
mean arterial pressure [4]: 96.51 ± 16.69 mmHg
mean arterial pressure, change ratio [4]: 8.95 ± 8.95
change-rate of left intraventricular pressure MAX [5]: 5706.1 ± 1390.6 mmHg/s
change-rate of left intraventricular pressure MAX, change ratio [5]: 7.6 ± 26.1
change-rate of left intraventricular pressure, -MAX [5]: −4156.0 ± 947.7 mm/Hg/s
change-rate of left intraventricular pressure, -MAX, change ratio [5]: −2.2 ± 15.9
contractive pressure [5]: 131.95 ± 25.10 mmHg
contractive pressure, change ratio [5]: 2.56 ± 13.11
diastolic pressure [5]: 74.71 ± 18.13 mmHg
diastolic pressure, change ratio [5]: 8.47 ± 17.66
heart rate [5]: 369.71 ± 35.54 beat/min
heart rate, change ratio [5]: 13.31 ± 13.05
left intraventricular pressure [5]: 130.91 ± 17.22 mmHg
left intraventricular pressure, change ratio [5]: 2.39 ± 9.41
mean arterial pressure [5]: 93.79 ± 20.11 mmHg
mean arterial pressure, change ratio [5]: 5.62 ± 15.30
change-rate of left intraventricular pressure MAX [6]: 5512.7 ± 1250.1 mmHg/s
change-rate of left intraventricular pressure MAX, change ratio [6]: 3.6 ± 20.4
change-rate of left intraventricular pressure, -MAX [6]: −3995.2 ± 837.9 mm/Hg/s
change-rate of left intraventricular pressure, -MAX, change ratio [6]: −5.6 ± 14.3
contractive pressure [6]: 128.62 ± 28.30 mmHg
contractive pressure, change ratio [6]: −0.49 ± 12.28
diastolic pressure [6]: 72.46 ± 20.46 mmHg
diastolic pressure, change ratio [6]: 4.39 ± 16.80
heart rate [6]: 360.36 ± 51.93 beat/min
heart rate, change ratio [6]: 9.40 ± 6.30
left intraventricular pressure [6]: 129.15 ± 18.53 mmHg
left intraventricular pressure, change ratio [6]: 0.79 ± 7.76
mean arterial pressure [6]: 91.18 ± 22.76 mmHg
mean arterial pressure, change ratio [6]: 2.06 ± 14.37
change-rate of left intraventricular pressure MAX [7]: 5380.2 ± 913.7 mmHg/s
change-rate of left intraventricular pressure, -MAX [7]: −4246.1 ± 669.3 mm/Hg/s
contractive pressure [7]: 129.06 ± 22.13 mmHg
diastolic pressure [7]: 68.47 ± 11.97 mmHg
heart rate [7]: 329.43 ± 43.77 beat/min
left intraventricular pressure [7]: 128.68 ± 20.18 mmHg
mean arterial pressure [7]: 88.67 ± 14.74 mmHg
effect on the heart rate (in words) (4.5 mg/kg, 9 mg/kg and 18 mg/kg doses): no significant effects
−dp/dt (in words) (9 mg/kg and 18 mg/kg, significant at 60 and 120 min): exhibited a decrease tendency
change-rate of left intraventricular pressure MAX [8]: 5388.9 ± 1187.0 mmHg/s
change-rate of left intraventricular pressure MAX, change ratio [8]: −0.7 ± 6.7
change-rate of left intraventricular pressure, -MAX [8]: −3908.5 ± 1013.0 mm/Hg/s
change-rate of left intraventricular pressure, -MAX, change ratio [8]: 0.0 ± 11.2
contractive pressure [8]: 131.10 ± 24.38 mmHg
contractive pressure, change ratio [8]: −1.14 ± 6.68
diastolic pressure [8]: 68.02 ± 18.77 mmHg
diastolic pressure, change ratio [8]: −2.47 ± 10.80
heart rate [8]: 374.04 ± 47.60 beat/min
heart rate, change ratio [8]: 0.28 ± 7.83
left intraventricular pressure [8]: 128.87 ± 25.63 mmHg
left intraventricular pressure, change ratio [8]: −0.03 ± 8.26
mean arterial pressure [8]: 89.05 ± 20.26 mmHg
mean arterial pressure, change ratio [8]: −1.79 ± 8.69
change-rate of left intraventricular pressure MAX [9]: 5321.6 ± 1133.0 mmHg/s
change-rate of left intraventricular pressure MAX, change ratio [9]: −1.6 ± 7.4
change-rate of left intraventricular pressure, -MAX [9]: −3792.8 ± 979.5 mm/Hg/s
change-rate of left intraventricular pressure, -MAX, change ratio [9]: −2.9 ± 10.2
contractive pressure [9]: 127.85 ± 23.92 mmHg
contractive pressure, change ratio [9]: −3.57 ± 7.14
diastolic pressure [9]: 66.18 ± 19.00 mmHg
diastolic pressure, change ratio [9]: −5.33 ± 9.64
heart rate [9]: 374.93 ± 47.51 beat/min
heart rate, change ratio [9]: 0.48 ± 7.36
left intraventricular pressure [9]: 127.06 ± 25.57 mmHg
left intraventricular pressure, change ratio [9]: −1.37 ± 9.10
mean arterial pressure [9]: 86.74 ± 20.25 mmHg
mean arterial pressure, change ratio [9]: −4.42 ± 8.30
change-rate of left intraventricular pressure MAX [10]: 5179.1 ± 1270.9 mmHg/s
change-rate of left intraventricular pressure MAX, change ratio [10]: −5.0 ± 7.8
change-rate of left intraventricular pressure, -MAX [10]: −3696.8 ± 997.3 mm/Hg/s
change-rate of left intraventricular pressure, -MAX, change ratio [10]: −5.5 ± 10.8
contractive pressure [10]: 122.58 ± 23.46 mmHg
contractive pressure, change ratio [10]: −7.38 ± 8.66
diastolic pressure [10]: 62.90 ± 17.46 mmHg
diastolic pressure, change ratio [10]: −9.50 ± 10.75
heart rate [10]: 361.94 ± 43.56 beat/min
heart rate, change ratio [10]: −3.00 ± 5.83
left intraventricular pressure [10]: 123.59 ± 25.06 mmHg
left intraventricular pressure, change ratio [10]: −4.07 ± 8.57
mean arterial pressure [10]: 82.79 ± 18.98 mmHg
mean arterial pressure, change ratio [10]: −8.42 ± 9.56
change-rate of left intraventricular pressure MAX [11]: 4966.9 ± 1297.4 mmHg/s
change-rate of left intraventricular pressure MAX, change ratio [11]: −9.2 ± 10.0
change-rate of left intraventricular pressure, -MAX [11]: −3569.5 ± 857.8 mm/Hg/s
change-rate of left intraventricular pressure, -MAX, change ratio [11]: −8.3 ± 10.2
contractive pressure [11]: 115.46 ± 23.90 mmHg
